pIC50: −log10 of the molar value. Active and inactive are the calls of the source. The rule behind the calls is not given here.
How the values were obtained:
U-251 [1] = test: Induction of apoptosis in human U-251 cells assessed as late apoptotic cells at 0.375 uM incubated for 72 hrs by Annexin V-FITC/PI staining based flow cytometry method (Rvb =1.31 %); type: functional
U-251 [2] = test: Induction of cell cycle arrest in human U-251 cells assessed as accumulation at G0/G1 phase at 0.75 to 3 uM and measured after 72 hrs by flow cytometry; type: functional, cell-based; conditions: dose 0.75-3 µM, DDE = dose-dependent effect
U-251 [3] = test: Antimigratory activity in human U-251 cells assessed as inhibition of cell migration by measuring wound closure at 0.25 to 1.0 uM and measured after 24 hrs by wound healing assay; type: functional, cell-based; conditions: dose 0.25-1 µM, DDE = dose-dependent effect
U-251 [4] = test: Induction of cell cycle arrest in human U-251 cells assessed as decrease in accumulation at G2/M phase at 0.75 to 3 uM measured after 72 hrs by flow cytometry; type: functional, cell-based; conditions: dose 0.75-3 µM, DDE = dose-dependent effect
U-251 [5] = test: Induction of apoptosis in human U-251 cells assessed as enlargement of intracellular space at 0.375 to 6 uM measured after 72 hrs by Giemsa staining based microscopic analysis; type: functional, cell-based; conditions: dose 0.375-6 µM
U-251 [6] = test: Induction of apoptosis in human U-251 cells assessed as viable cells at 6 uM incubated for 72 hrs by Annexin V-FITC/PI staining based flow cytometry method (reference value: 96.22 %); type: functional; conditions: read-out: Activity
U-251 [7] = test: Induction of apoptosis in human U-251 cells assessed as early apoptotic cells at 6 uM incubated for 72 hrs by Annexin V-FITC/PI staining based flow cytometry method (Rvb =1.96 %); type: functional
U-251 [8] = test: Induction of apoptosis in human U-251 cells assessed as viable cells at 1.50 uM incubated for 72 hrs by Annexin V-FITC/PI staining based flow cytometry method (reference value: 96.22 %); type: functional; conditions: read-out: Activity
U-87MG ATCC [9] = test: Antiproliferative activity against human U-87 MG cells assessed as reduction in colony number at 0.125 to 0.5 uM for 2 to 3 weeks by crystal violet staining based plate clone formation assay; type: functional, cell-based; conditions: dose 0.125-0.5 µM, time 2-3 weeks, DDE = dose-dependent effect
U-251 [10] = test: Induction of apoptosis in human U-251 cells assessed as early apoptotic cells at 1.50 uM incubated for 72 hrs by Annexin V-FITC/PI staining based flow cytometry method (Rvb =1.96 %); type: functional; conditions: dose 1.5 µM
U-87MG ATCC [11] = test: Antitumor activity against human U-87 MG cells xenografted in BALB/c mouse assessed assessed as inhibition of tumor cell proliferation at 10 mg/kg,ip bid for 1 month by Ki67 staining based immunohistochemical analysis; type: functional, organism-based; conditions: time 1.0 months
[12] = Cmax in Sprague-Dawley rat brain at 100 mg/kg, ip and measured upto 240 mins by LC-MS analysis; type: ADME, organism-based; set-up: time < 240 min, dose 100 mg/kg, route ip
U-87MG ATCC [13] = test: Induction of apoptosis in human U-87 MG cells assessed as reduction in cell count at 0.075 to 1.20 uM measured after 72 hrs by Giemsa staining based microscopic analysis; type: functional; conditions: dose 0.075-1.2 µM
U-87MG ATCC [14] = test: Antiinvasive activity against human U-87 MG cells assessed as inhibition of cell invasion at 0.125 to 0.50 uM and measured after 24 hrs by transwell invasion assay; type: functional, cell-based; conditions: dose 0.125-0.5 µM, DDE = dose-dependent effect
[15] = Induction of apoptosis in human U-87 MG cells assessed as late apoptotic cells at 1.20 uM incubated for 72 hrs by Annexin V-FITC/PI staining based flow cytometry method (reference value: 0.42 %); type: functional, U-87MG ATCC; conditions: dose 1.2 µM
[16] = Cmax in Sprague-Dawley rat plasma at 100 mg/kg, ip and measured upto 240 mins by LC-MS analysis; type: ADME, organism-based; set-up: dose 100 mg/kg, time < 240 min, route ip
U-251 [17] = test: Antiproliferative activity against human U-251 cells assessed as inhibition of cell proliferation measured after 72 hrs by CCK8 assay; type: functional, cell-based; conditions: U-251, 72 h
U-251 [18] = test: Induction of apoptosis in human U-251 cells assessed as viable cells at 0.375 uM incubated for 72 hrs by Annexin V-FITC/PI staining based flow cytometry method (reference value: 96.22 %); type: functional; conditions: read-out: Activity
[19] = Induction of apoptosis in human U-87 MG cells assessed as necrotic cells at 1.20 uM incubated for 72 hrs by Annexin V-FITC/PI staining based flow cytometry method (reference value: 0.21 %); type: functional, U-87MG ATCC; conditions: dose 1.2 µM
U-87MG ATCC [20] = test: Antitumor activity against human U-87 MG cells xenografted in BALB/c mouse assessed as decrease in tumor volume at 10 mg/kg,ip bid for 1 month; type: functional, organism-based; conditions: time 1.0 months
[21] = AUC (0 to infinity) in Sprague-Dawley rat brain at 100 mg/kg, ip and measured upto 240 mins by LC-MS analysis; type: ADME, organism-based; set-up: dose 100 mg/kg, time < 240 min, route ip
[22] = Induction of apoptosis in human U-87 MG cells assessed as viable cells at 0.075 uM incubated for 72 hrs by Annexin V-FITC/PI staining based flow cytometry method (reference value: 96.84 %); type: functional, U-87MG ATCC; conditions: read-out: Activity
[23] = Permeability of compound across blood brain barrier in Sprague-Dawley rat at 100 mg/kg, ip and measured after 240 mins by LC-MS analysis; type: ADME, organism-based; conditions: read-out: BBR
U-251 [24] = test: Induction of cell cycle arrest in human U-251 cells assessed as decrease in accumulation at S phase at 0.75 to 3 uM measured after 72 hrs by flow cytometry; type: functional, cell-based; conditions: dose 0.75-3 µM, DDE = dose-dependent effect
[25] = Tmax in Sprague-Dawley rat brain at 100 mg/kg, ip and measured upto 240 mins by LC-MS analysis; type: ADME, organism-based
[26] = AUC (0 to t) in Sprague-Dawley rat plasma at 100 mg/kg, ip and measured upto 240 mins by LC-MS analysis; type: ADME, organism-based; set-up: dose 100 mg/kg, time < 240 min, route ip
U-87MG ATCC [27] = test: Induction of apoptosis in human U-87 MG cells assessed as formation of spindle shaped cells at 0.075 to 1.20 uM measured after 72 hrs by Giemsa staining based microscopic analysis; type: functional, cell-based; conditions: dose 0.075-1.2 µM
[28] = Induction of apoptosis in human U-87 MG cells assessed as viable cells at 1.20 uM incubated for 72 hrs by Annexin V-FITC/PI staining based flow cytometry method (reference value: 96.84 %); type: functional, U-87MG ATCC; conditions: read-out: Activity
U-87MG ATCC [29] = test: Induction of apoptosis in human U-87 MG cells assessed as enlargement of intracellular space at 0.075 to 1.20 uM measured after 72 hrs by Giemsa staining based microscopic analysis; type: functional, cell-based; conditions: dose 0.075-1.2 µM
U-251 [30] = test: Induction of apoptosis in human U-251 cells assessed as necrotic cells at 0.375 uM incubated for 72 hrs by Annexin V-FITC/PI staining based flow cytometry method (Rvb =0.51 %); type: functional
[31] = Acute toxicity in Kunming mouse assessed as pathological changes in spleen at 600 mg/kg, ip measured after 24 hrs by H and E staining analysis; type: organism-based; conditions: in vivo
U-251 [32] = test: Induction of apoptosis in human U-251 cells assessed as necrotic cells at 1.50 uM incubated for 72 hrs by Annexin V-FITC/PI staining based flow cytometry method (Rvb =0.51 %); type: functional; conditions: dose 1.5 µM
[33] = Induction of apoptosis in human U-87 MG cells assessed as early apoptotic cells at 0.075 uM incubated for 72 hrs by Annexin V-FITC/PI staining based flow cytometry method (reference value: 2.53 %); type: functional, U-87MG ATCC
U-251 [34] = test: Downregulation of cyclin D1 gene expression in human U-251 cells at 0.075 to 1.2 uM measured after 72 hrs by western blot analysis; type: functional, cell-based; conditions: dose 0.075-1.2 µM

In the case of `COCCN1CCN(c2ccc(F)cc2C(=O)Nc2ccc(CNC(=O)OCc3cccnc3)cc2)CC1`, the Activity (U-251 [1]) was 1.61%, the Activity (U-251 [2]) was “Dde” and the Activity (U-251 [3]) was “Dde”. The Activity (U-251 [4]) was “Dde”, the Activity (U-251 [5]) was “Active” and the viability at 6 µM (U-251 [6]) was 86.8%. The Activity (U-251 [7]) was 4.81%, the viability at 1.5 µM (U-251 [8]) was 93.7% and the Activity (U-87MG ATCC [9]) was “Dde”. The Activity (U-251 [10]) was 2.9%, the Activity (U-87MG ATCC [11]) was “Active” and the Cmax [12] was 92.5 µg/mL. For the same molecule, the Activity (U-87MG ATCC [13]) was “Active”, the Activity (U-87MG ATCC [14]) was “Dde” and the Activity [15] was 9.97%. For the same molecule, the Cmax [16] was 71.7 µg/mL, the pIC50 (U-251 [17]) was 5.89 and the viability at 0.375 µM (U-251 [18]) was 95.9%. For the same molecule, the Activity [19] was 1.76%, the Activity (U-87MG ATCC [20]) was “Active” and the AUC(0-inf) [21] was 102000 ng·h/mL. The viability at 0.075 µM [22] was 96.5%, the Kp at 4 h [23] was 1.07 and the Activity (U-251 [24]) was “Dde”. For the same molecule, the Tmax [25] was 30 min, the AUC(0-t) at 4 h [26] was 90400 ng·h/mL and the Activity (U-87MG ATCC [27]) was “Active”. The viability at 1.2 µM [28] was 70.3%, the Activity (U-87MG ATCC [29]) was “Active” and the Activity (U-251 [30]) was 0.53%. For the same molecule, the Activity [31] was “Non-Toxic”, the Activity (U-251 [32]) was 0.94% and the Activity [33] was 2.76%. The Activity (U-251 [34]) was “Active”.
